The source of these data is patent publication US9512169B2, “3-substituted estra-1,3,5(10),16-tetraene derivatives, methods for the production thereof, pharmaceutical preparations containing same, and use thereof for the production of medicaments” (BAYER PHARMA AKTIENGESELLSCHAFT, priority 2012, dated 2016).

Values joined by “and” are separate entries in the source; they are usually repeats but may differ in a detail not shown here. Identical values can stand only once.

In general, IC50 refers to the concentration needed to halve the response being measured. By Kd is commonly meant the free concentration of one partner at which half of the binding sites on the other are occupied at equilibrium, for simple one-to-one binding.

Test [1] has as its target T1, AKR1C3 (Homo sapiens (Human), UniProt P42330). Briefly: AKR1C3 enzyme inhibition assay (Coumberone to Coumberol fluorescence). Type of test: biochemical. Particulars: recombinant human AKR1C3, 15 min pre-incubation, 90 min at 22° C.; repeated lines = two experimental determinations. The method, then:
The AKR1C3-inhibitory activity of the substances of the present invention was measured in the AKR1C3 assay described in the paragraphs below.
Essentially, the enzyme activity is measured by quantification of the Coumberol from Coumberone (Halim, M., Yee, D. J., and Sames, D., J. AM. CHEM. SOC. 130, 14123-14128 (2008) and Yee, D. J., Balsanek, V., Bauman, D. R., Penning, T. M., and Sames, D., Proc. Natl. Acad. Sci. USA 103, 13304-13309 (2006)). In this test, the increase of the highly fluorescent Coumberol by NADPH- (nicotinamide adenine dinucleotide phosphate)-dependent reduction of the non-fluorescent Coumberone by AKR1C3 can be determined.
The enzyme used was recombinant human AKR1C3 (Aldo-keto reductase family 1 member C3) (GenBank Accession No. NM_003739). This was expressed in E. coli as GST (glutathione S transferase) fusion protein and purified by glutathione Sepharose affinity chromatography. The GST was removed by digestion with thrombin and subsequent size exclusion chromatography (Dufort, I., Rheault, P., Huang, X F., Soucy, P., and Luu-The, V., Endocrinology 140, 568-574 (1999)).
For the assay, 50 nl of a 100-fold concentrated solution of the test substance in DMSO were pipetted into a black low-volume 384-well microtiter plate (Greiner Bio-One, Frickenhausen, Germany), 2.0 μl of a solution of AKR1C3 in assay buffer [50 mM potassium phosphate buffer pH 7, 1 mM DTT, 0.0022% (w/v) Pluronic F-127, 0.01% BSA (w/v) and protease inhibitor cocktail (Complete, EDTA-free Protease Inhibitor Cocktail from Roche)] were added and the mixture was incubated for 15 min to allow pre-binding of the substances to the enzyme prior to the enzyme reaction. The enzyme reaction was then started by addition of 3 μl of a solution of NADPH (16.7 μM→final concentration in 5 μl of assay volume is 10 μM) and Coumberone (0.5 μM→final concentration in 5 μl of assay volume is 0.3 μM) in assay buffer, and the resulting mixture was incubated at 22° C. for the reaction time of 90 min. The concentration of the AKR1C3 was adapted to the respective activity of the enzyme preparation and adjusted such that the assay was carried out in the linear range. Typical concentrations were in the region of 1 nM. The reaction was stopped by addition of 5 μl of a stop solution consisting of the inhibitor EM-1404 [F. Labrie et al. U.S. Pat. No. 6,541,463, 2003] (2 μM→final concentration in […] is 1 μM). The fluorescence of the Coumberole was then measured at 520 nm (excitation at 380 nm) using a suitable measuring instrument (Pherastar from BMG Labtechnologies). The intensity of the fluorescence was used as a measure of the amount of Coumberole formed and thus of the enzyme activity of AKR1C3. The data were normalized (enzyme reaction without inhibitor=0% inhibition; all other assay components, but no enzyme=100% inhibition).
As described, the pharmacological substances claimed were examined for their inhibitory activity on the AKR1C3 enzyme (see Table 1). The compounds claimed show a strong inhibition of AKR1C3 in vitro (IC50 values <200 nM) and in most cases even IC50 values <50 nM.

The target in test [2] is T1, AKR1C3. Briefly: AKR1C3 binding by isothermal titration calorimetry. Particulars: ITC, 25° C., PBS buffer. Details: exothermal binding enthalpy: unit not given here. The method, then:
Binding of Example compound 1 to the AKR1C3 enzyme was measured by isothermal titration calorimetry. The degree of affinity of a given compound can be stated using the dissociation constant (KD value). Human AKR1C3 enzyme was prepared as described in Example 20. For ITC experiments, human AKR1C3 protein was transferred by gel permeation into a PBS buffer consisting of 137 mM NaCl, 2.7 mM KCl, 10 mM Na2HPO4, 2 mM KH2PO4 and 1 mM tris(2-carboxyethyl)phosphine hydrochloride. The compounds were dissolved in 100% DMSO at a concentration of 10 mM and then diluted with PBS buffer. Isothermal titration calorimetry experiments (ITC experiments) were carried out using an ITC200 titration calorimeter (GE Healthcare, Northampton, Mass., USA) at a temperature of 25° C. The change in enthalpy resulting from the injection of the protein was determined by integration of the calorimetric signal. The data were analyzed with Origin 7.0 (GE Healthcare, Northampton, Mass., USA). Heat of dilution values were determined using the last injection of the titration in question and subtracted prior to curve fitting. The protein concentration in the injection syringe was in the range from 80 to 120 μM, and the concentration of the compound to be measured was in the range from 5 to 20 μM.
For orientation: Isothermal titration calorimetry measures the heat released or taken up as one component is titrated into another.

For test [3], the target named is T1, AKR1C3. Briefly: AKR1C3 inhibition in a cell-based system (HEK293 cells transfected with AKR1C3 expression plasmid, coumberol fluorescence). The following applies: HEK293 cells transfected with AKR1C3, incubation overnight; repeated lines = independent determinations; read-out: Cellular AKR1C3 inhibition IC50. The method, then:
The inhibition of AKR1C3 by the substances described in the present invention was measured in a cell-based assay using […] as substrate for the AKR1C3 (Halim, M., Yee, D. J., and Sames, D., J. AM. CHEM. SOC. 130, 14123-14128 (2008) and Yee, D. J., Balsanek, V., Bauman, D. R., Penning, T. M., and Sames, D., Proc. Natl. Acad. Sci. USA 103, 13304-13309 (2006)) (cf. Example 20).
The cell system used were HEK293 cells (ATCC, USA) (cell culture medium: DMEM, 1.5 g glucose, 10% FCS, PSG). The cells were transfected in an AKR1C3 expression plasmid (pCMV6-AC-AKR1C3, GenBank Accession No. NM_003739.4) overnight (X-tremeGENE HP, Roche). The next morning, the cells were sown in black 96well cell culture plates at a cell density of 40000 cells/well (Greiner Bio-One, Frickenhausen, Germany). After 7 h, the cells were incubated with the test substances (dissolved in 100× concentration in DMSO, final concentration between 10^−11M and 10^−5M) and […] (dissolved in cell culture medium, final concentration 5×10^−6M) overnight. The next morning, the fluorescence of coumberol was measured at 535 nm (excitation at 355 nm) using a suitable measuring instrument (Mithras, from Berthold). The fluorescence intensity was used as a measure of the amount of coumberol formed and thus of the enzyme activity of AKR1C3. The data were normalized (transfected cells without inhibitor, only DMSO=0% inhibition; transfected cells, 10 μM inhibitor EM-1404 [F. Labrie et al. U.S. Pat. No. 6,541,463, 2003]=100% inhibition), and the IC50 values were calculated using a 4-parameter fit.
In the cell-based assay described above, the pharmacological substances claimed were examined for their inhibitory activity on the AKR1C3 enzyme (see Table 2).

T1 sequence (P42330 whole entry): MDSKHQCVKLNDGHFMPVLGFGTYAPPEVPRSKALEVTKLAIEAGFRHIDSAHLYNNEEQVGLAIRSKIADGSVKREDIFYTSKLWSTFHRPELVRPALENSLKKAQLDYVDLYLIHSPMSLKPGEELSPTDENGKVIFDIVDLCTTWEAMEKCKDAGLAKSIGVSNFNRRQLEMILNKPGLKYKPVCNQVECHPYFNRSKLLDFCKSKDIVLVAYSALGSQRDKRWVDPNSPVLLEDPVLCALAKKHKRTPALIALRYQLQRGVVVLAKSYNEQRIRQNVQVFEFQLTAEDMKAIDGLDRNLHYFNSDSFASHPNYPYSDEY

Consider `C[C@]12CC[C@@H]3c4ccc(CCC(=O)O)cc4CC[C@H]3[C@@H]1CC=C2c1cncc(F)c1` [Example 1, 3-[17-(5-Fluoropyridin-3-yl)estra-1,3,5(10),16-tetraen-3-yl]propanoic acid], for which the IC50 on AKR1C3 [1] was 8 nM and 7.6 nM; on AKR1C3 [3], 40 nM and 52 nM and 157 nM. The exothermal binding enthalpy on AKR1C3 [2] is given as −1500. The Kd at AKR1C3 [2] (read-out: KD value (dissociation constant)) came out at 230 nM.
